This is an account of results in patent US20210207188A1, “BETA-LACTAM COMPOUNDS AND METHODS OF USE THEREOF” (priority 2018, published 2021).

Bounds are passed on as bounds.

Broadly, the Km is the concentration of substrate that gives half-maximal velocity.

For one assay, the target named is T1, IMP-1 (Serratia marcescens, UniProt P52699).
T1 construct: His tag; made in house; host or cells: Escherichia coli
Type of assay: biochemical. Conditions: IMP-1. The procedure: (§1) Recombinant his-tagged beta-lactamases, including NDM-1, IMP-1, KPC-2, VIM-2 and OXA-48 were overexpressed in Escherichia coli. The enzymes were purified using HisTrap Ni-NTA columns. AmpC and TEM were purchased from commercial sources.
(§2) The fluorescence-based activity assays were performed in phosphate-buffer saline. The concentration of some of the compounds were determined by boiling the compounds in PBS solution until fluorescence signal was saturated. The amount of released fluorophore was quantified via fluorescence spectroscopy by comparing to a corresponding calibration curve.

A further assay addresses T2, KPC-2 (Klebsiella pneumoniae, UniProt Q9F663).
T2 construct: His tag; made in house; host or cells: Escherichia coli
Type of assay: biochemical. The procedure: as §1, §2

A further assay deals with T3, NDM-1 (Klebsiella pneumoniae, UniProt C7C422).
T3 construct: His tag; made in house; host or cells: Escherichia coli
It is filed as biochemical. The procedure: as §1, §2

Another assay has as its target T4, OXA-48 (Klebsiella pneumoniae, UniProt Q6XEC0).
T4 construct: His tag; made in house; host or cells: Escherichia coli
It is filed as biochemical. The procedure:
as §1, §2

Another assay has as its target T5, VIM-2 (Escherichia coli, UniProt Q5U7L7).
T5 construct: His tag; made in house; host or cells: Escherichia coli
Type of assay: biochemical. The procedure:
as §1, §2

The next assay has as its system AmpC. In words: Activity of beta-lactamases towards probes (fluorescence-based activity assay), AmpC. Type of assay: biochemical. Conditions: probe 2.0 μM (MCW-002 1.1 μM, MCW-011 0.5 μM), PBS. The procedure: as §1, §2
Another assay has as its target T6, TEM (Escherichia coli, UniProt P62593).
T6 construct: purchased
Briefly: Activity of beta-lactamases towards probes (fluorescence-based activity assay), TEM. Type of assay: biochemical. Conditions: probe 2.0 μM (MCW-002 1.1 μM, MCW-011 0.5 μM), PBS. The procedure:
as §1, §2

Assay [1] deals with beta-lactamases, including NDM-1, IMP-1, VIM-2, KPC-2, OXA-48, AmpC, and TEM. In words: Fluorescence-based activity assay, whole panel of tested beta-lactamases. Conditions: conclusion from fluorescence signals. Type of assay: biochemical. The procedure:
as §1, §2
(§3) Among the tested beta-lactamases, NDM-1, IMP-1, VIM-2, KPC-2 and OXA-48 are carbapenemases, whereas AmpC and TEM are not. Nitrocefin was used as a control to test the activity of the beta-lactamases because it can be hydrolyzed by a wide range of beta-lactamases.

Assay [2] relates to clinical isolates (CPE, Carbapenemase Producing Enterobacteriaceae, and Non CPE strains). Briefly: Selectivity of probes with clinical isolates in lysis buffer (visible light and UV light). Type of assay: cell-based. Conditions: probe 10 μM. The procedure: The selectivity of some probes were evaluated with clinical isolates. The carbapenemases presence in the bacteria (CPE, i.e., Carbapenemase Producing Enterobacteriaceae) were verified by PCR (Polymerase Chain Reaction). 1 μL loop-full of each test bacterium from overnight-cultured LB agar plate were added to 100 μL PBS buffer with 0.5% CHAPS. The bacteria were vortexed to give a homogenious suspension and incubated for 15 min. To each of the bacteria-lysis buffer mixture (20 μL) were added quick test reagents (Probes (Final concentration=10 μM), CarbaNP solution A and CarbaNP solution B). CarbaNP solutions A and B were freshly prepared according to CLSI protocol, where solution A contains 10 mM zinc sulphate and phenol red buffer at pH=7.8±0.1 and solution B was a mixture of solution A with 3 mg/mL imipenem.

Assay [3] has as its system beta-lactamases, including NDM-1, IMP-1, VIM-2, KPC-2, OXA-48, AmpC, and TEM. In words: Hydrolysis of nitrocefin by beta-lactamases, absorbance at 485 nm. Type of assay: biochemical. Conditions: nitrocefin 50 μM. The procedure:
as §1
The enzymatic activity of these beta-lactamases in hydrolysing beta-lactam compounds was tested using nitrocefin as a probe. Nitrocefin (50 μM) dissolved in phosphate buffer (pH=7.4) was mixed with each purified beta-lactamase. Once hydrolyzed, nitrocefin underwent a rapid color change from yellow to red. The hydrolysis process of nitrocefin was monitored by measuring the absorbance at 485 nm with a Molecular Device SpectraMax® Paradigm® Multi-Mode Microplate Reader.
as §3

[4] abbreviates: probe 2.0 μM (MCW-002 1.1 μM, MCW-011 0.5 μM), PBS.
Setting [5] is: probe 2.0 μM (MCW-011 0.5 μM), PBS.

T2 sequence (Q9F663 25-293 limits assumed): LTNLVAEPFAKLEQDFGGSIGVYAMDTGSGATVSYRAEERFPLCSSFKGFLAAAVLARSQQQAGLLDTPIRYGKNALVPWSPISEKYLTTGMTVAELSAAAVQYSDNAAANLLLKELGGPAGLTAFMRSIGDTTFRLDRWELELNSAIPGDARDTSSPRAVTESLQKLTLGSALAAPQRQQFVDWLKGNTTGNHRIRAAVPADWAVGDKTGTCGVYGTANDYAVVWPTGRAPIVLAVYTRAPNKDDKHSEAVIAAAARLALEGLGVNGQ
T1 sequence (P52699 19-246 limits assumed): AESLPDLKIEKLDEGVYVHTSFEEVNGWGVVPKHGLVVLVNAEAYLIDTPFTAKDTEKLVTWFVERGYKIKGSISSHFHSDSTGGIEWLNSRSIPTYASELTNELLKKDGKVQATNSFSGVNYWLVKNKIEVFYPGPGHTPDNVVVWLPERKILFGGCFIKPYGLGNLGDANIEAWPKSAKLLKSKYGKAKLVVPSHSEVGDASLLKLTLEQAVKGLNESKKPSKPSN
T3 sequence (C7C422 29-270 limits assumed): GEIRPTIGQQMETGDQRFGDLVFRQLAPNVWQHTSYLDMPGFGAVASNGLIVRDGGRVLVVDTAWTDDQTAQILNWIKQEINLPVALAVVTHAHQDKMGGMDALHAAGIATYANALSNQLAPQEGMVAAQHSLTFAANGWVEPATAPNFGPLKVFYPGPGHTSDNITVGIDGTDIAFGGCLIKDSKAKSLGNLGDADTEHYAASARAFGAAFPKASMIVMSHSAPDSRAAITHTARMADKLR
T4 sequence (Q6XEC0 23-265 limits assumed): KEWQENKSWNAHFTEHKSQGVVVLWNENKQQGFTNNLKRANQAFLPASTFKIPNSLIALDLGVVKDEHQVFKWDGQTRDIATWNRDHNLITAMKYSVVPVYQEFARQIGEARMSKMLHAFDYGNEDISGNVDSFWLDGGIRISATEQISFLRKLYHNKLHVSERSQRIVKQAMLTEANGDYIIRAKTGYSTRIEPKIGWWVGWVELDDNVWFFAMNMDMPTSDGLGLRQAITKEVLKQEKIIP
T6 sequence (P62593 24-286 limits assumed): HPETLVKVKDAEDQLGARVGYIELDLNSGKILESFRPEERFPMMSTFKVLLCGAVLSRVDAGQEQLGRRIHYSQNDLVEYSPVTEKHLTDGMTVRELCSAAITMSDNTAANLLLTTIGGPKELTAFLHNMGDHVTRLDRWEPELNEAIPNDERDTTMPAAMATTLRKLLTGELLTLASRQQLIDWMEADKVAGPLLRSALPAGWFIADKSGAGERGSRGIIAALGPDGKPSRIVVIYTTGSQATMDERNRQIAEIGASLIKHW

Turning to `COc1cc(COc2ccc3nc4ccc(=O)cc-4oc3c2)ccc1OC/C=C/C1=C(C(=O)O)N2C(=O)[C@H]([C@@H](C)O)[C@H]2[C@H]1C` [MCW-007, (4S,5R,6S)-6-((R)-1-hydroxyethyl)-3-((E)-3-(2-methoxy-4-(((3-oxo-3H-phenoxazin-7-yl)oxy)methyl)phenoxy)prop-1-en-1-yl)-4-methyl-7-oxo-1-azabicyclo[3.2.0]hept-2-ene-2-carboxylic acid], the “3S/k (detection limit of the probe towards the carbapenemase)” value at IMP-1 came to 0.379 pM; on KPC-2 it was 8.50 pM; on NDM-1 it was 0.439 pM; at OXA-48 it was 367 pM; on VIM-2 it was 5.22 pM. Besides, the “time until hydrolysis reaction complete (fluorescent signal plateaued)” value on IMP-1 (probe 2.0 μM) and on NDM-1 (probe 2.0 μM) was at most 5 min each time. In addition, the “fluorescence signal over time” value on IMP-1 (setting [4]) is “pronounced increase in the fluorescent signal”; at KPC-2 (setting [4]) it was “pronounced increase in the fluorescent signal”; on NDM-1 (setting [4]), “pronounced increase in the fluorescent signal”; at OXA-48 (setting [5]) it was “did not provide significant fluorescence response”; at VIM-2 (setting [5]), “pronounced increase in the fluorescent signal”; in the assay on AmpC, “minimal changes in the fluorescent signal”. The “fluorescence signal over time” value at TEM is listed as “minimal changes in the fluorescent signal”. The Kcat on IMP-1 (Michaelis-Menten kinetics) came out at 116 ± 2.81 s⁻¹; on KPC-2 (Michaelis-Menten kinetics), 8.04 ± 1.96 s⁻¹; at NDM-1 (Michaelis-Menten kinetics) it was 95.1 ± 4.32 s⁻¹; at VIM-2 (Michaelis-Menten kinetics), 6.87 ± 0.11 s⁻¹. Further, the Michaelis constant (Km) at IMP-1 (Michaelis-Menten kinetics) worked out at 1.33 ± 0.08 µM; at KPC-2 (Michaelis-Menten kinetics), 0.77 ± 0.06 µM; at NDM-1 (Michaelis-Menten kinetics), 1.56 ± 0.17 µM; at VIM-2 (Michaelis-Menten kinetics), 0.92 ± 0.04 µM. The “relative rate of hydrolysis reaction” value on KPC-2 was “slower compared to the reaction with NDM-1 and IMP-1”; on VIM-2, “slower compared to the reaction with NDM-1 and IMP-1”. Moreover, in assay [1], the “specificity among the tested beta-lactamases” value is “specific for some carbapenemases”. The “signal with panel of clinical isolates” value was “observable colorimetric and fluorescence signal in some CPE strains but not the Non CPE strains” in [2] (incubated for 15 min); “observable colorimetric and fluorescence signal in CPE strains but not the Non CPE strains” in [2] (incubated for 120 min).
In the case of `O=C(Cc1cccs1)N[C@@H]1C(=O)N2C(C(=O)O)=C(/C=C/c3ccc([N+](=O)[O-])cc3[N+](=O)[O-])CS[C@H]12` [nitrocefin], the hydrolysis of nitrocefin result in assay [3] (all of the tested beta-lactamases) is recorded as “can hydrolyze nitrocefin”. In addition, the “time until hydrolysis reactions complete (absorption at 485 nm plateaued)” value in assay [3] (except NDM-1) is recorded as at most 30 min.
